Source: US6569849B1, “N-Substituted azaheterocyclic compounds” (Novo Nordisk A/S, priority 1996, dated 2003)
Structures can show the parent of a compound that is named as a salt.

Tested on: histamine induced paw oedema
Assay: Histamine induced paw oedema (rat histamine paw oedema test)
Assay type: in vivo, male Sprague-Dawley rats
Conditions: 1.0 mg/kg, intraperitoneally 15 minutes before anaesthetics; paw swelling 20 minutes after histamine, water plethysmography
Procedure: Compounds of formula I may be used to treat all painful, hyperalgesic and/or inflammatory conditions in which C-fibres play a pathophysiological role by eliciting neurogenic pain or inflammation, i.e.: The rat histamine paw oedema test was performed essentially as described by Amann et al. (Europ. J. Pharmacol. 279, 227-231, 1995). In brief 250-300 g male Sprague-Dawley rats were anaesthetized with pentobarbital sodium, and placed on a 32 degree (Celsius) heated table. Ten minutes later histamine (50 micoliter, 3 mg/ml) was injected in the right hind paw and 20 minutes hereafter the paw swelling was determined by water plethysmography (Ugo Basile). Test compounds were administered intraperitoneally at 15 minutes before the anaesthetics. Values for inhibition of histamine induced oedema response for some representative compounds are recorded in table 1.

| SMILES | % Oedema inhibition [%] |
| --- | --- |
| Cl.O=C(O)[C@@H]1CCCN(C/C=C\CN2c3ccccc3CCc3ccccc32)C1 [Example 4, 1-(4-(10,11-Dihydro-5H-dibenzo[b,f]azepin-5-yl)-(2Z)-butenyl)-(3R)-piperidinecarboxylic Acid Hydrochloride] | 26 |
| CC(CN1c2ccccc2CCc2ccccc21)CN1CCCCC1C(=O)O [Example 3, 1-(3-(10,11-Dihydro-5H-dibenzo[b,f]azepin-5-yl)-(2R)-methyl-1-propyl)-(2R)-piperidinecarboxylic Acid Hydrochloride] | 47 |

Tested on: not given
Assay: not given
Conditions: not given

| SMILES | melting point [°C] |
| --- | --- |
| CC(CN1c2ccccc2CCc2ccccc21)CN1CCCCC1C(=O)O (as salt: hydrochloride) (hydrate or solvate) [Example 3, 1-(3-(10,11-Dihydro-5H-dibenzo[b,f]azepin-5-yl)-(2R)-methyl-1-propyl)-(2R)-piperidinecarboxylic Acid Hydrochloride] | 201 to 216 |
| CC(CCN1c2ccccc2CCc2ccccc21)N1CCC[C@@H](C(=O)O)C1.Cl (stereo partly drawn) (hydrate or solvate) | 214 to 218 |
| Cl.O=C(O)[C@@H]1CCCN(Cc2ccc(C3c4ccccc4CCc4ccccc43)cc2)C1 | 167 to 175 |
| CCCC(CN1CCC[C@@H](C(=O)O)C1)CN1c2ccccc2CCc2ccccc21.Cl (stereo partly drawn) (hydrate or solvate) | 116 to 120 |
| CN(CCN1CCC[C@@H](C(=O)O)C1)C1c2ccccc2CCc2ccccc21 (hydrate or solvate) [Example 30, (R)-1-(2-(N-(10,11-dihydro-5H-dibenzo[a,d]cyclohepten-5-yl)-N-methylamino)ethyl)-3-piperidinecarboxylic Acid] | 187 to 190 |
| O=C(O)[C@@H]1CCCN(CC#CCN2c3ccccc3CCc3ccccc32)C1 (hydrate or solvate) [Example 10, (R)-1-(4-(10,11-Dihydro-5H-dibenzo[b,f]azepin-5-yl)-2-butyn-1-yl)-3-piperidinecarboxylic Acid] | 153 to 154 |
| Cl.O=C(O)[C@@H]1CCCN(CCC(=O)N2c3ccccc3CCc3ccccc32)C1 (hydrate or solvate) | 180 to 183 |
| CC(CN1CCC[C@@H](C(=O)O)C1)=C1c2ccccc2CCc2ccccc21.Cl (hydrate or solvate) | 151 to 155 |
| CC(CN1c2ccccc2CCc2ccccc21)N1CCC[C@@H](C(=O)O)C1.Cl (stereo partly drawn) (hydrate or solvate) | 213 to 223 |
| O=C(O)[C@@H]1CCCN(C(=O)CC=C2c3ccccc3CCc3ccccc32)C1 [Example 5, 1-(3-(10,11-Dihydro-5H-dibenzo[a,d]cyclohepten-5-ylidene)-1-propionyl)-(3R)-piperidinecarboxylic Acid] | 71 to 76 |
